Experimental data: PMC12827894, “Structure-guided design of picomolar-level macrocyclic TRPC5 channel inhibitors with antidepressant activity” (Acta Pharmaceutica Sinica. B, 2025)
Read-outs that look alike come from different tables or passages of the source.

Experiments:
μOR = target: T1, μOR (Homo sapiens, UniProt P35372); test: cell-based; conditions: antagonist mode, 10 μmol/L, read-out: Antagonist JDIC-127 @10 μmol/L
T1 construct: purchased ICE Bioscience ICESTP™ SafetyOne44 Panel

D2 = target: T2, D2 (Homo sapiens, UniProt P14416); test: cell-based; assay type: cell-based
T2 construct: purchased ICE Bioscience ICESTP™ SafetyOne44 Panel

5-HT2B = target: T3, 5-HT2B (Homo sapiens, UniProt P41595); test: cell-based; assay type: cell-based; conditions: 5-HT2B, 10 μmol/L
T3 construct: purchased ICE Bioscience ICESTP SafetyOne44 Panel

CCK1 = target: T4, CCK1 (Homo sapiens, UniProt P32238); test: SafetyOne44 panel: CCK1; assay type: cell-based; conditions: 10 μmol/L
T4 construct: purchased ICE Bioscience ICESTP™ SafetyOne44 Panel
T4 sequence (P32238 1-428): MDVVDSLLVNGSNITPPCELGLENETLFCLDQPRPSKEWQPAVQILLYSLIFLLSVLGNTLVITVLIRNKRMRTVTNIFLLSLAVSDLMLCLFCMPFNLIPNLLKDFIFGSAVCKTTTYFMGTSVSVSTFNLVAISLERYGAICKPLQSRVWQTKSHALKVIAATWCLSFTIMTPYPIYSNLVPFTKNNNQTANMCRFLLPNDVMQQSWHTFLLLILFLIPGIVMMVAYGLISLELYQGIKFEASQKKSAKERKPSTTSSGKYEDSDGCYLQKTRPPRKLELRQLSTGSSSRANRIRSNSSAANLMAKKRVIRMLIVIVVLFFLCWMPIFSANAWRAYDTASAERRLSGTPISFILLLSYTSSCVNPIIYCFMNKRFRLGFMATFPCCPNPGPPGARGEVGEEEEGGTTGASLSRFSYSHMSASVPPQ

5-HT2A = target: T5, 5-HT2A (Homo sapiens, UniProt P28223); test: cell-based; assay type: cell-based
T5 construct: purchased ICE Bioscience ICESTP SafetyOne44 Panel

hERG = hERG (Homo sapiens, UniProt Q12809); conditions: 10 μmol/L, patch-clamp
TRPM3 = TRPM3 (Homo sapiens, UniProt Q9HCF6); test: Patch-clamp selectivity, TRPM3; assay type: cell-based; conditions: 10 μmol/L
C57BL/6J mice = test: m-CPP-induced anxiety model, marble burying test; assay type: in vivo; conditions: p.o.
TRPC5 F576A = target: T6, TRPC5 F576A (Homo sapiens, UniProt Q9UL62, F576A); test: Inhibition of TRPC5 mutant F576A; assay type: cell-based; conditions: TRPC5 F576A vs wild type
T6 construct: full-length wild-type or mutant TRPC5 was cloned into a pcDNA3.1 vector; expressed in transfected cells; host or cells: HEK293T

V1a [1] = target: T7, V1a (Homo sapiens, UniProt P37288); conditions: agonist mode
TRPC1/4 = target: T8, TRPC1/4 (Homo sapiens, UniProt P48995+Q9UBN4); test: Whole-cell patch-clamp, TRPC1/4 heteromer, 100 nmol/L EA; assay type: cell-based; conditions: read-out: IC50, TRPC1/4
T8 construct: expressed in transfected cells; host or cells: HEK293T
From the text: (§1) Given that TRPC4 and TRPC5 are highly similar and often form heteromeric with TRPC1, we evaluated JDIC-127's activity on TRPC4, TRPC1/4, and TRPC1/5 using whole-cell patch-clamp recordings under agonist stimulation with 100 nmol/L EA in HEK293T cells. […].
(§2) For electrophysiological activity testing of compounds against TRPC4 and TRPC5, stably expressed TRPC5 or TRPC4 cells were used for whole-cell patch-clamp recordings, employing a HEKA EPC10 amplifier and […] software (https://www.heka.com/downloads/downloads_main.html#down_patchmaster). Prior to recording, cells were induced with 1 μg/mL tetracycline for 24 h. For TRPC1/4 or TRPC1/5 heteromers, plasmids TRPC1 and TRPC5 or TRPC1 and TRPC4 were co-transfected into HEK293T cells. After 48 to 72 h of transfection, testing was performed. A 1-s ramp protocol from −100 to +100 mV at 0.2 Hz was applied, as previously described. The extracellular solution consisted of 140 mmol/L NaCl, 1 mmol/L MgCl2, 2 mmol/L CaCl2, 10 mmol/L Hepes, 5 mmol/L KCl, and 10 mmol/L D-glucose, with pH adjusted to 7.4 using NaOH. […] The half-maximal inhibitory concentration (IC50) of drugs was determined by recording currents at a +100 mV pulse and analyzing current amplitudes at varying drug concentrations, with IC50 values calculated using the Hill equation. […]

V1a [2] = target: T7, V1a; test: cell-based; conditions: read-out: Antagonist JDIC-127 @10 μmol/L
C57BL/6 mice = test: Forced swim test (FST); assay type: in vivo; conditions: 0.3 or 3 mg/kg p.o., 14 days
DAT = target: T9, DAT (Homo sapiens, UniProt Q01959); test: SafetyOne44 panel: DAT; assay type: cell-based; conditions: 10 μmol/L, read-out: Antagonist JDIC-127 @10 μmol/L
T9 construct: purchased ICE Bioscience ICESTP™ SafetyOne44 Panel

5-HT3A = target: T10, 5-HT3A (Homo sapiens, UniProt P46098); assay type: cell-based
T10 construct: ICE Bioscience ICESTP SafetyOne44 Panel

D1 = target: T11, D1 (Homo sapiens, UniProt P21728); test: cell-based; assay type: cell-based
T11 construct: purchased ICE Bioscience ICESTP™ SafetyOne44 Panel

TRPC1/5 = target: T12, TRPC1/5 (Homo sapiens, UniProt P48995+Q9UL62); test: Whole-cell patch-clamp, TRPC1/5 heteromer, 100 nmol/L EA; assay type: cell-based; conditions: read-out: IC50, TRPC1/5
T12 construct: full-length wild-type or mutant TRPC5 was cloned into a pcDNA3.1 vector; expressed in transfected cells; host or cells: HEK293T
From the text: as §1, §2

T5 sequence (P28223 whole entry): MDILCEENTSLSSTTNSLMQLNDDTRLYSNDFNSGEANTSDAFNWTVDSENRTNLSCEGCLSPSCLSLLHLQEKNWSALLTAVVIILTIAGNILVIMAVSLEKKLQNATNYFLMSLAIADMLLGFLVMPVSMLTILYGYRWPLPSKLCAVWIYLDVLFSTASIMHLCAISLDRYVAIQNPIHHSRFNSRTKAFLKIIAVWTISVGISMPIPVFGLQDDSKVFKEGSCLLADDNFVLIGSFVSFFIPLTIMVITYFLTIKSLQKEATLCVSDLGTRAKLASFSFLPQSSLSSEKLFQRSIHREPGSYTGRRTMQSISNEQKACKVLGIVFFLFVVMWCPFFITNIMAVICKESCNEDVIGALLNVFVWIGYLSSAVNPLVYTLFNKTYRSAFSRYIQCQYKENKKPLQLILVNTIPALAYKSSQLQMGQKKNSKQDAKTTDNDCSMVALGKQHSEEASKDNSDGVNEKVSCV
T10 sequence (P46098 24-478, species assumed): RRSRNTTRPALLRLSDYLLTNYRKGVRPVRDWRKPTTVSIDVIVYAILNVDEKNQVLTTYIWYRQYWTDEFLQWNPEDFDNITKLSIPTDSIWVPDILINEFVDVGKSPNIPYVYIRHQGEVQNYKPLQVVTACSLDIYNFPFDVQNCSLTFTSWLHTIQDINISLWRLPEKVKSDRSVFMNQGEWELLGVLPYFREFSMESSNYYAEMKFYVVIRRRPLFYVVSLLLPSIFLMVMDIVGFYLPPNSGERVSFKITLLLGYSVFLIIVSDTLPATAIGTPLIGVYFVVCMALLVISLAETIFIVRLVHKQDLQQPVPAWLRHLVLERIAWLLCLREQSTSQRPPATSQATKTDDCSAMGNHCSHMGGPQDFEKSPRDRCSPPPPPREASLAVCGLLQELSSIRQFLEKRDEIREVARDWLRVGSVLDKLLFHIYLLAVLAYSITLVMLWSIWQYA
T11 sequence (P21728 whole entry): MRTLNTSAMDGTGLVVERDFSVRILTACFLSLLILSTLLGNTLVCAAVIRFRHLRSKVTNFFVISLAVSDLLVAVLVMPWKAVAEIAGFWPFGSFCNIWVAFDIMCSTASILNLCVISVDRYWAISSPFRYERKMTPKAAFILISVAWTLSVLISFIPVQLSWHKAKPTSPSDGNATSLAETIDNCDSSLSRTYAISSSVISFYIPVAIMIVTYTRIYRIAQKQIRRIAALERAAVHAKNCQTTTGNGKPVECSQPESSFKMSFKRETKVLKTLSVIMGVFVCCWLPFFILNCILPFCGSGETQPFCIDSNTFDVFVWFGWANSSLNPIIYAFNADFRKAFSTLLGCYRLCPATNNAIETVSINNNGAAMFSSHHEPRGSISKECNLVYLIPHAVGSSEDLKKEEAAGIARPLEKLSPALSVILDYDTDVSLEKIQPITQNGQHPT
T7 sequence (P37288 whole entry): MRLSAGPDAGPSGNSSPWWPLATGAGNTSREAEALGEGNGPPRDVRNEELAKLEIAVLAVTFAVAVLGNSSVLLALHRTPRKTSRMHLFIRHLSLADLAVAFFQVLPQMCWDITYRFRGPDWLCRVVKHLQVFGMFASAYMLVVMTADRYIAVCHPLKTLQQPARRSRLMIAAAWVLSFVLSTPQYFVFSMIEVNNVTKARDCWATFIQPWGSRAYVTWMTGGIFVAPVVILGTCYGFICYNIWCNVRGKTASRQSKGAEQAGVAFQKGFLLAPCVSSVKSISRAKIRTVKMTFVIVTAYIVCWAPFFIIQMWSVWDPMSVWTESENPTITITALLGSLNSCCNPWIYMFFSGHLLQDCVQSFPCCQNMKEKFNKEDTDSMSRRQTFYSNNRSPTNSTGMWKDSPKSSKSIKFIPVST
T3 sequence (P41595 whole entry): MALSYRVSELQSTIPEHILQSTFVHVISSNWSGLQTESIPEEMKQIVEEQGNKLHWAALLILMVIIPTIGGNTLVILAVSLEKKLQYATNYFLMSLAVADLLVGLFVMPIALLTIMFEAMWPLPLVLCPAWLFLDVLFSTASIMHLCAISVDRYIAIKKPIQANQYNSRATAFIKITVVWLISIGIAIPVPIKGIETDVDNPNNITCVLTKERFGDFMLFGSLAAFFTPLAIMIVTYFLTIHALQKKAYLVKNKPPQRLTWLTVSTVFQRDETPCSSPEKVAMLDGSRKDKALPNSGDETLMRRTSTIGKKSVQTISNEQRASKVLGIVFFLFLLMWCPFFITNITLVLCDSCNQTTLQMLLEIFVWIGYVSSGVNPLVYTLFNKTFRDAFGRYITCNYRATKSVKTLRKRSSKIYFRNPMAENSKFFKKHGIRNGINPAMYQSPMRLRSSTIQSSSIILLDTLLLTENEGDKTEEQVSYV
T2 sequence (P14416 whole entry): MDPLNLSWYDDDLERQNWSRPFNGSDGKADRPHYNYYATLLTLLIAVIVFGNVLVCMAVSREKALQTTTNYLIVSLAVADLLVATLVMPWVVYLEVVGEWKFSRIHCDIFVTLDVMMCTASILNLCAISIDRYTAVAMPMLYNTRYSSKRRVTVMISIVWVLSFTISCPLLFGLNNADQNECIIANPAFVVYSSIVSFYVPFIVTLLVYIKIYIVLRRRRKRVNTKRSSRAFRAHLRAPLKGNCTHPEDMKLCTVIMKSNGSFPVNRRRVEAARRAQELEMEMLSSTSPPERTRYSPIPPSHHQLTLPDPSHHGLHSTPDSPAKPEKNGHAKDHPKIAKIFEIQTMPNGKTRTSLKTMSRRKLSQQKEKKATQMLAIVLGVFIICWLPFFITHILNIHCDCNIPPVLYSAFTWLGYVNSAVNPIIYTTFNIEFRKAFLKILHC
Sequence of TRPM3 (Q9HCF6 whole entry, species assumed): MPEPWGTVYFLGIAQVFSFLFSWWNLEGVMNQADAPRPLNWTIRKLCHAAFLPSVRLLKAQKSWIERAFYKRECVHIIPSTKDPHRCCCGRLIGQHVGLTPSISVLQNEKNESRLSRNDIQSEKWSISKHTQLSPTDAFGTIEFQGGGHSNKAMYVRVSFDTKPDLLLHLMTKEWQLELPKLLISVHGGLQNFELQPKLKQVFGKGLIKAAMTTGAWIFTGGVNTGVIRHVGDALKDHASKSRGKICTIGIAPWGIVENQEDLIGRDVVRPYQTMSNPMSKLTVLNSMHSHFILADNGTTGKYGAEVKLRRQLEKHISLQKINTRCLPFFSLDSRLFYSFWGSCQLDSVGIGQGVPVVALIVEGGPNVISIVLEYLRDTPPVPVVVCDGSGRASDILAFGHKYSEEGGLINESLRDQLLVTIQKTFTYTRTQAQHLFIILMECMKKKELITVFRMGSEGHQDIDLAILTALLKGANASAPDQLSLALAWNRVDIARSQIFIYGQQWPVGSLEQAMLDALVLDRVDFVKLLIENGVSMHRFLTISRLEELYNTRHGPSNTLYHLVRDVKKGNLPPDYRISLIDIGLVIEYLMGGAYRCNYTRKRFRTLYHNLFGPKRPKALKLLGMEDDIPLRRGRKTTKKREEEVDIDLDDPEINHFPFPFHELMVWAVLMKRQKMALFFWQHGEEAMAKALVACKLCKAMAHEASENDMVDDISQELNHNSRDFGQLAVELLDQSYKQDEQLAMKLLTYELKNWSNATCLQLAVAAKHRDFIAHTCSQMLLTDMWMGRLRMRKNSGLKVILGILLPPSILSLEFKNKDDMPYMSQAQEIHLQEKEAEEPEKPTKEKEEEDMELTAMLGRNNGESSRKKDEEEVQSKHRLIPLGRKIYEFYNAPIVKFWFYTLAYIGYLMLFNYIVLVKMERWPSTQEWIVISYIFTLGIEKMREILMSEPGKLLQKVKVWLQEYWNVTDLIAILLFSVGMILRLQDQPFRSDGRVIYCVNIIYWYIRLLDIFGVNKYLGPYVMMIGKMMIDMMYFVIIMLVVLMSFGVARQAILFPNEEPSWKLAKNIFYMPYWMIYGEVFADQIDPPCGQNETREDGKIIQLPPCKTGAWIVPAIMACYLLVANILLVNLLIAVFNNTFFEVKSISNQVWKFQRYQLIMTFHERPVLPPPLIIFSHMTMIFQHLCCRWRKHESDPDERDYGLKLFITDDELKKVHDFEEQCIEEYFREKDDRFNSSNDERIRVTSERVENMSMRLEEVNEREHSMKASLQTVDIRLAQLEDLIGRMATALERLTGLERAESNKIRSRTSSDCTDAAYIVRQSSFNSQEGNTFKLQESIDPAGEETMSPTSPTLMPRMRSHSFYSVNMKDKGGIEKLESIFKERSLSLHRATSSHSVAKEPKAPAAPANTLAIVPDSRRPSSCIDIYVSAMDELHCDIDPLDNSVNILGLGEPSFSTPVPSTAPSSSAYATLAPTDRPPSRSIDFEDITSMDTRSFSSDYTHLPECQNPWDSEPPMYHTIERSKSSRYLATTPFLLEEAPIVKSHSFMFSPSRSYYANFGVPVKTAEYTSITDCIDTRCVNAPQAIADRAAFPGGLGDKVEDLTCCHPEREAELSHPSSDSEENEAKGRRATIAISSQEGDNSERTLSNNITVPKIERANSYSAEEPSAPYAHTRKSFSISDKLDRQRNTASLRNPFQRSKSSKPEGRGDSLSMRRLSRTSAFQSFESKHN
T1 sequence (P35372 whole entry): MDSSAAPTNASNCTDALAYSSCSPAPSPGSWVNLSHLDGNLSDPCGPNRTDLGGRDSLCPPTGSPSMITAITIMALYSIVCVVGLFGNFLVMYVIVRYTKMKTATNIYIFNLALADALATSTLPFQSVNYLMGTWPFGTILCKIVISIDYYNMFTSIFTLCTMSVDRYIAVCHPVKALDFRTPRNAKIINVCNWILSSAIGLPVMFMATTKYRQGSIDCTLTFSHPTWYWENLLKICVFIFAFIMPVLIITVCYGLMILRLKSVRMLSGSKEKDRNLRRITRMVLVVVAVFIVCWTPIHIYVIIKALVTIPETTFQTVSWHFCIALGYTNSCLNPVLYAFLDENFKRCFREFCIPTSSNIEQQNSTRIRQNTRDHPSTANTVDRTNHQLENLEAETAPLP

## O=c1c2c3nc(n2Cc2ccc(Cl)cc2)Oc2ccc(F)c(c2)OCCCCCCn3c(=O)n1CCCO [JDIC-127]
μOR
  inhibition at 10 µM: -16.9%
D2; D2, agonist mode
  Agonist JDIC-127 @10 μmol/L: –9.18%
D2; D2, antagonist mode, 10 μmol/L, read-out: Antagonist JDIC-127 @10 μmol/L
  inhibition at 10 µM: -1.55%
5-HT2B; agonist mode
  Agonist JDIC-127 @10 μmol/L: 0.67%
5-HT2B; antagonist mode, read-out: Antagonist JDIC-127 @10 μmol/L
  inhibition at 10 µM: -0.45%
CCK1; CCK1, agonist mode
  Agonist JDIC-127 @10 μmol/L: –3.36%
CCK1; CCK1, antagonist mode, read-out: Antagonist JDIC-127 @10 μmol/L
  inhibition at 10 µM: 6.16%
5-HT2A; agonist mode
  Agonist JDIC-127 @10 μmol/L: 3.92%
5-HT2A; antagonist mode, 10 μmol/L, read-out: Antagonist JDIC-127 @10 μmol/L
  inhibition at 10 µM: 5.24%
hERG
  inhibition of hERG activity: less than 33%
TRPM3
  inhibition at 10 µM: < 33%
C57BL/6J mice
  number of buried marbles, MBT: reduced
TRPC5 F576A
  effect of mutation on inhibitory potency of JDIC-127: significantly diminished
V1a [1]
  Agonist JDIC-127 @10 μmol/L: –7.01%
TRPC1/4
  IC50: 1.86 nM
V1a [2]
  inhibition at 10 µM: -0.83%
C57BL/6 mice
  immobility time in FST: significantly reduced
DAT
  inhibition at 10 µM: -57.6%
5-HT3A; agonist mode
  Agonist JDIC-127 @ 5 μmol/L: 0.39%
5-HT3A; antagonist mode
  Antagonist JDIC-127 @5 μmol/L: 17.73%
D1; D1, agonist mode
  Agonist JDIC-127 @10 μmol/L: –1.54%
D1; D1, antagonist mode, 10 μmol/L, read-out: Antagonist JDIC-127 @10 μmol/L
  inhibition at 10 µM: 8.89%
C57BL/6, 2 mpk, i.v.
  AUC0–t: 496 h∗ng/mL
  AUC0–∞: 499 h∗ng/mL
C57BL/6, 10 mpk, p.o.
  AUC0–t: 187 h∗ng/mL
  AUC0–∞: 193 h∗ng/mL
  CL: 865 mL/min/kg
  Vd: 107 L/kg
TRPC1/5
  IC50: 0.358 nM
